# Measured values: article PMC8571282 (Nature Communications, 2021)
# Where “and” joins values, the source holds several entries; their conditions need not be identical. Equal values may be shown once. Read-outs that look alike come from different tables or passages of the source.
# Tests used:
# [1] = test system: SARS-CoV-2 WA1/2020 (lineage A); experiment: microbe, parasite or virus in culture; assay type: cell-based
# [2] = test system: SARS-CoV-2 CA/2020 (α, lineage B.1.1.7); experiment: microbe, parasite or virus in culture; assay type: cell-based; details: Severe acute respiratory syndrome coronavirus 2, Vero C1008; CA/2020, VeroE6, mean n=3
# [3] = test system: SARS-CoV-2 SA/2020 (β, lineage B.1.351); experiment: microbe, parasite or virus in culture; assay type: cell-based; details: Severe acute respiratory syndrome coronavirus 2, Vero C1008; SA/2020, VeroE6, mean n=3
# [4] = test system: SARS-CoV-2 BZ/2021 (γ, lineage P.1); experiment: microbe, parasite or virus in culture; assay type: cell-based; details: Severe acute respiratory syndrome coronavirus 2, Vero C1008; BZ/2021, VeroE6, mean n=3
# [5] = test system: SARS-CoV-2-Nluc (WA1/2020-nano luciferase); experiment: microbe, parasite or virus in culture; assay type: cell-based
# [6] = test system: SARS-CoV-2 gamma isolate (BZ/2021, lineage P.1); experiment: microbe, parasite or virus in culture; assay type: cell-based; details: Severe acute respiratory syndrome coronavirus 2
# [7] = test system: well-differentiated primary human airway epithelium cultures; assay type: cell-based
# [8] = test system: SARS-CoV-2 (WA1/2020 and VOC α, β, γ); experiment: microbe, parasite or virus in culture; assay type: cell-based; details: Severe acute respiratory syndrome coronavirus 2, Vero C1008; read-out: Half-maximal effective concentrations (EC50), range
# [9] = parameters: method as in Mackman et al 2021 (JMC 2021, 64(8), 5001-5017); details: rats, ref Mackman et al 2021 (JMC 2021, 64(8), 5001-5017); cited from earlier work
# [10] = parameters: method as in Mackman et al 2021 (JMC 2021, 64(8), 5001-5017); details: cynomolgus macaques, ref Mackman et al 2021 (JMC 2021, 64(8), 5001-5017); cited from earlier work
# [11] = several species; cited from earlier work
# in vitro [12] = details: human
# in vitro [13] = details: human, % cell viability, HEp-2, 3.704 µM, 72 h
# in vitro [14] = details: human, % cell viability, HCT-8, 0.046 µM, 72 h
# in vitro [15] = details: human; remark: listed apart in the source
# [16] = Cytotoxicity assay (PrestoBlue), HEp-2; details: human, HEp-2 cells
# [17] = Cytotoxicity assay (PrestoBlue), HCT-8; details: human, HCT-8 cells
# [18] = Cytotoxicity assay (PrestoBlue), VeroE6; details: African green monkey, VeroE6 cells
# VeroE6 cells = experiment: Cytotoxicity assay (PrestoBlue), VeroE6; details: 72 h
# [19] = Cytotoxicity assay (PrestoBlue), “F2” HAE; details: human
# [20] = Cytotoxicity assay (PrestoBlue), “F3” HAE; details: human
# “F3” primary HAE cells = experiment: Cytotoxicity assay (PrestoBlue), “F3” HAE; details: F3 HAE, 72 h
# [21] = Cytotoxicity assay (PrestoBlue), “M2” HAE; details: human
# [22] = Cytotoxicity assay (PrestoBlue), “M6” HAE; details: human
# “M6” primary HAE cells = experiment: Cytotoxicity assay (PrestoBlue), “M6” HAE; details: M6 HAE, 72 h
compound,measurement,setting,value
N#C[C@@]1(c2ccc3c(N)ncnn23)O[C@H](CO)[C@@H](O)[C@H]1O [GS-441524],EC50,"[1]; Severe acute respiratory syndrome coronavirus 2, Vero C1008, WA1/2020, VeroE6, mean n=3",680 nM
same,Virus yield reduction,"[1]; WA1/2020, VeroE6, 5.55556 µM, vehicle = 0",-3.43
same,EC50,[2],110 nM
same,EC50,[3],340 nM
same,EC50,[4],550 nM
same,"A549-hACE2 SARS-CoV-2 Nluc (EC50 determination), normalized signal","[5]; Conc 0.005 µM, replicate values of the experiments",114.03
same,"A549-hACE2 SARS-CoV-2 Nluc (EC50 determination), normalized signal","[5]; Conc 0.02 µM, replicate values of Exp 1-6",66.74 and 93.22 and 117.07 and 119.81 and 81.21
same,"A549-hACE2 SARS-CoV-2 Nluc (EC50 determination), normalized signal","[5]; Conc 0.07 µM, replicate values of Exp 1-6",114.55 and 112.96 and 134.59 and 90.75
same,"A549-hACE2 SARS-CoV-2 Nluc (EC50 determination), normalized signal","[5]; Conc 0.21 µM, replicate values of Exp 1-6",92.40 and 126.15
same,"A549-hACE2 SARS-CoV-2 Nluc (EC50 determination), normalized signal","[5]; Conc 3.333 µM, replicate values of the experiments",14.96 and 23.34 and 25.42
same,"A549-hACE2 SARS-CoV-2 Nluc (EC50 determination), normalized signal","[5]; Conc 5.56 µM, replicate values of Exp 1-6",3.54 and 6.01 and 4.94 and 3.43 and 3.57 and 2.25 and 0.47 and 0.46 and 0.35 and 0.41 and 5.69
same,"A549-hACE2 SARS-CoV-2 Nluc (EC50 determination), normalized signal","[5]; Conc 10.000 µM, replicate values of the experiments",0.35 and 0.30 and 0.32 and 0.31
same,"A549-hACE2 SARS-CoV-2 Nluc (EC50 determination), normalized signal","[5]; Conc 16.67 µM, replicate values of Exp 1-6",1.67 and 0.36 (2×) and 0.34 and 1.12 and 1.72 and 1.07 and 0.18 (2×) and 0.21 and 0.23 and 0.31
same,"A549-hACE2 SARS-CoV-2 Nluc (EC50 determination), normalized signal","[5]; Conc 50.00 µM, replicate values of Exp 1-6",0.89 and 0.17 (2×) and 0.16 (3×) and 0.55 and 0.87 and 0.59 and 0.19 and 0.20 and 0.18
same,EC50,"[5]; Severe acute respiratory syndrome coronavirus 2, WA1/2020-nano luciferase, A549-ACE2, mean ± SD",1400 ± 900 nM
same,EC50,[6],2830 nM
same,basolateral drug concentration at which epithelium integrity (TEER) was fully preserved,[7],≥ 3 µM
same,EC50,[8],110 to 680 nM
same,oral F,[9],12%
same,oral F,[10],3.4%
same,oral bioavailability (in words),[11],poor oral bioavailability
same,CC50 at 48 h,in vitro [12],> 50000 nM
same,"viability at 72 h, 3.704 µM",in vitro [13],93%
same,"viability at 72 h, 0.046 µM",in vitro [14],88%
same,"viability at 72 h, 3.704 µM","in vitro [15]; female, % cell viability",90%
same,CC50 at 72 h,in vitro [15],> 100000 nM
same,"viability at 72 h, 100 µM",in vitro [15]; % cell viability,62%
same,"viability at 72 h, 0.046 µM","[16]; % cell viability, HEp-2, 0.046 µM, 72 h",52%
same,"viability at 72 h, 100 µM","[16]; % cell viability, HEp-2, 100 µM, 72 h",51%
same,CC50 at 72 h,"[16]; CC50, HEp-2, 72 h",> 100000 nM
same,"viability at 72 h, 0.046 µM","[17]; % cell viability, HCT-8, 0.046 µM, 72 h",74%
same,"viability at 72 h, 1.235 µM","[17]; % cell viability, HCT-8, 1.235 µM, 72 h",89%
same,"viability at 72 h, 100 µM","[17]; % cell viability, HCT-8, 100 µM, 72 h",62%
same,CC50 at 72 h,"[17]; CC50, HCT-8, 72 h",> 100000 nM
same,CC50 at 72 h,[18],> 100000 nM
same,"viability at 72 h, 0.046 µM","[18]; % cell viability, VeroE6, 0.046 µM, 72 h",60%
same,"viability at 72 h, 1.235 µM","[18]; % cell viability, VeroE6, 1.235 µM, 72 h",75%
same,"viability at 72 h, 3.704 µM","[18]; % cell viability, VeroE6, 3.704 µM, 72 h",84%
same,"viability at 72 h, 100 µM","[18]; % cell viability, VeroE6, 100 µM, 72 h",66%
same,% cell viability,"VeroE6 cells; VeroE6, 0.046 µM, 0.046 µM",56% and 59%
same,% cell viability,"VeroE6 cells; VeroE6, 1.235 µM, 1.235 µM",91% and 82%
same,% cell viability,"VeroE6 cells; VeroE6, 3.704 µM, 3.704 µM",92%
same,% cell viability,"VeroE6 cells; VeroE6, 100 µM, 100 µM",59%
same,"viability at 72 h, 0.046 µM","[19]; female, “F2” primary human airway epithelial (HAE) cells, % cell viability, F2 HAE, 0.046 µM",92%
same,"viability at 72 h, 100 µM","[19]; % cell viability, F2 HAE, 100 µM",86%
same,CC50 at 72 h,"[19]; CC50, “F2” HAE",> 100000 nM
same,"viability at 72 h, 0.046 µM","[20]; female, “F3” primary human airway epithelial (HAE) cells, % cell viability, F3 HAE, 0.046 µM",87%
same,"viability at 72 h, 100 µM","[20]; % cell viability, F3 HAE, 100 µM",84%
same,CC50 at 72 h,"[20]; CC50, “F3” HAE",> 100000 nM
same,% cell viability,“F3” primary HAE cells; 0.046 µM,90%
same,% cell viability,“F3” primary HAE cells; 100 µM,86% and 74%
same,CC50 at 72 h,[21],> 100000 nM
same,CC50 at 72 h,[22],> 100000 nM
same,% cell viability,“M6” primary HAE cells; 0.046 µM,87%
same,% cell viability,“M6” primary HAE cells; 3.704 µM,86%
